Measurements from US20080015147A1, “Method for inhibiting neuronal cell death” (priority 2006, published 2008).

Legend:
Type in all cases: cell-based, mouse
caspase 8 = assay: Caspase 8 colorimetric assay; conditions: pH 7.4; apoptotic control
Protocol: (§1) Caspase 8 and 3 colorimetric assays were performed on the N38 cells at all pH conditions. The assay was based on the detection of the chromophore pNA after cleavage from the labeled substrate IETD-pNA and DEVD-pNA for caspase 8 and 3, respectively. Comparison of the pNA absorbance from the suspected apoptotic sample was compared to the uninduced neutral pH sample. Caspase 8 and 3 were analysed using the Caspase-3 Colorimetric Activity Assay (Chemicon, Temecula USA) and Caspase-8 Colorimetric Activity Assay (Chemicon, Temecula USA). The cells from each pH treatment described previously at 24 and 48 hrs were removed using a cell scraper and centrifuged at 1500 rpm for 10 minutes. The cells were resuspended in 350 μl of chilled cell lysis buffer containing 500 μl PBS, 5 μl 1% Triton ×100 (Sigma, St. Louis), 25 μl proteinase inhibitor cocktail set III (VWR, Mississauga), 0.5 μM dithiothreitol (DTT) (Sigma, St. Louis) and 2.5 μl phenylmethylsulphonylfluoride (PMSF) diluted in 1 mL of methanol (EM Science, Gibbstown), then incubated on ice for 10 min and centrifuged for 5 minutes at 10,000 rpm. The supernatant, consisting of cytosolic extracts, was transferred to a new tube and a bicinchoninic acid (BCA) protein assay (Pierce, Rockford) was conducted to determine total protein concentration. The absorbance of each sample was measured on a SPECTRAmax Microplate spectrophotometer at 405 nm after an incubation period of 2 hours at 37° C. Changes in caspase 3 activity were determined by comparing the absorbance reading from the induced sample with the level of the uninduced control. Background readings from the buffer were subtracted from the reading of both the induced (pH 6.8, 8.0, 8.4) and uninduced (pH 7.4) samples before calculating changes in caspase 3 activity. The same was done for the detection of caspase 8. As a control, N38 cells were cultured with pH 7.4 DMEM and incubated for 4 days, apoptosis was then induced using 10 μM/ml etoposide and lysed according to the above protocol and used a control for all subsequent caspase 3 detection. All assays were performed with 4 replications.

caspase 3 = assay: Caspase 3 colorimetric assay; conditions: pH 7.4; apoptotic control
Protocol: as §1

cleaved caspase 3 = assay: Caspase 3 cleavage by immunoblot; conditions: 48 hr; any pH condition for TCAP-1
Protocol: Detection of caspase 3 cleavage was determined at 48 hrs. The samples at each pH and control (see above) were lysed using total protein isolation lysis buffer (described above). An aliquot of 25 μl of each sample was combined with 25 μl of 2×20% sodium dodecyl sulphate (SDS) sample buffer and loaded onto a 4-10% HCL-Tris pre cast polyacrylamide gel (BioRad, Mississauga). The gel was run at 200 v for 35 min and proteins were electrotransfered to a Hybond-C nitrocellulose membrane (Amersham, Baie d'Urfé) for 75 min at 100 v. After transfer, the membrane was washed with 10 ml of PBS with 0.05% Tween 20 (PBST) for 5 min at room temperature (RT) and the membrane was incubated in 10 ml of PBST-milk for one hour at RT followed by 3 times for 5 min washes with 10 ml of PBST. The membrane was then incubated with cleaved caspase 3 primary antibody (Cell Signaling Technology, Beverly) at a titre of 1:500 in 6 ml of PBST-milk with gentle agitation overnight at 4° C. The membranes were washed 3 times for 5 min with 10 ml of PBST followed by membrane incubation with anti-rabbit horseradish peroxidase (HRP)-conjugated secondary antibody (Amersham, Baie d'Urfé) at 1:3000 in 6 ml of PBST-milk with gentle agitation for 1 hr at RT. […]

For `COc1cc([C@@H]2c3cc4c(cc3[C@@H](O[C@@H]3O[C@@H]5CO[C@@H](C)O[C@H]5[C@H](O)[C@H]3O)[C@H]3COC(=O)[C@H]23)OCO4)cc(OC)c1O` [Etoposide, etoposide, reference compound], the “increase in caspase 8 relative to vehicle-treated cells” value (caspase 8) was “greater than 3 fold”, the “increase in caspase-3 relative to vehicle-treated cells” value (caspase 3) was 3.5 fold and the “caspase 3 cleavage product (17/19 kDa) on western blot” value (cleaved caspase 3) was “clearly visible”.
